Results published in patent US20080017207A1, “Reduction of the Deleterious Effects of Tobacco Smoking by the Induction of Phase 2 Enzymes by Nerf2” (SAVIPU PHARMACEUTICALS, priority 2006, published 2008).

Tests used:
[1] = test system: RTE cells; test: toxicity of tanshinone IIA to RTE cells; assay type: cell-based, rat
Experimental: (§1) The rat tracheal epithelial (RTE) cell focus inhibition assay was used to identify potential chemopreventive activity of tanshinone IIA. Tanshinone IIA was evaluated for its ability to inhibit benzo[a]pyrene-induced transformation of RTE cells. Tracheal epithelial cells were isolated from 8-12 week-old male Fisher 344 rats and plated on collagen coated dishes. Initially, a nontoxic concentration of tanshinone IIA was determined by treating RTE cells with a range of 1.5 nM to 3000 nM of tanshinone IIA. […] About 10% cells survived at a concentration of 1500 nM. Freshly isolated RTE cells were exposed to benzo[a]pyrene alone or in combination with tanshinone IIA. Benzo[a]pyrene was washed out after an exposure of 24 h. The maximal non-toxic concentration and four half log concentrations of tanshinone IIA (300 nM to 3 nM) were used for the chemopreventive assay. After 30 days in culture, transformed foci were scored and inhibition was quantitated. […] A positive control of retinoic acid inhibited the transformation frequency by 50% at 1 nM.

[2] = test system: NF-κB; conditions: as disclosed in U.S. Application Ser. No. 60/779,142; cited from earlier work
[3] = test system: benzo[a]pyrene-induced transformation of RTE cells; test: rat tracheal epithelial (RTE) cell focus inhibition assay; assay type: cell-based
Experimental: as §1

[4] = test system: benzo[a]pyrene-induced gastric neoplasia; conditions: cited from earlier work

Cc1coc2c1C(=O)C(=O)c1c-2ccc2c1CCCC2(C)C [Tanshinone IIA]
cells survived ([1]; at 1500 nM): About 10%
nontoxic concentration ([1]; range tested 1.5 nM to 3000 nM): ≤ 150 nM
toxicity to the cells ([1]; very low concentrations (3 nM)): nontoxic
inhibition of NF-κB [2]: demonstrated inhibition
prevention of benzo[a]pyrene-induced transformation of rat tracheal epithelial cells ([3]; 3 nM): totally prevented
inhibition of transformation frequency ([3]; each dose level, 300 nM to 3 nM, foci scored after 30 days in culture): complete inhibition

CC1=C(/C=C/C(C)=C/C=C/C(C)=C/C(=O)O)C(C)(C)CCC1 [retinoic acid, reference compound]
inhibition at 0.001 µM ([3]; Rattus norvegicus, at 1 nM, positive control, read-out: inhibition of transformation frequency): 50%

Cc1c(-c2cnccn2)ssc1=S [Oltipraz, 4-methyl-5-[2-pyrazinyl]-1,2-dithiole-3-thione]
tumor burden ([4]; nrf2-deficient mice): no effect
multiplicity of gastric neoplasia ([4]; wild-type mice): significantly reduced
